Literature values as cited in US9040021B2, “Heterocyclic compounds as imaging probes of tau pathology” (GE Healthcare Limited, priority 2010, dated 2015).

Biological target: tau aggregates (Homo sapiens, UniProt P10636)
Details: in vitro; tau aggregates vs Aβ1-42 amyloid; fold selectivity

Sequence of tau aggregates (P10636 whole entry): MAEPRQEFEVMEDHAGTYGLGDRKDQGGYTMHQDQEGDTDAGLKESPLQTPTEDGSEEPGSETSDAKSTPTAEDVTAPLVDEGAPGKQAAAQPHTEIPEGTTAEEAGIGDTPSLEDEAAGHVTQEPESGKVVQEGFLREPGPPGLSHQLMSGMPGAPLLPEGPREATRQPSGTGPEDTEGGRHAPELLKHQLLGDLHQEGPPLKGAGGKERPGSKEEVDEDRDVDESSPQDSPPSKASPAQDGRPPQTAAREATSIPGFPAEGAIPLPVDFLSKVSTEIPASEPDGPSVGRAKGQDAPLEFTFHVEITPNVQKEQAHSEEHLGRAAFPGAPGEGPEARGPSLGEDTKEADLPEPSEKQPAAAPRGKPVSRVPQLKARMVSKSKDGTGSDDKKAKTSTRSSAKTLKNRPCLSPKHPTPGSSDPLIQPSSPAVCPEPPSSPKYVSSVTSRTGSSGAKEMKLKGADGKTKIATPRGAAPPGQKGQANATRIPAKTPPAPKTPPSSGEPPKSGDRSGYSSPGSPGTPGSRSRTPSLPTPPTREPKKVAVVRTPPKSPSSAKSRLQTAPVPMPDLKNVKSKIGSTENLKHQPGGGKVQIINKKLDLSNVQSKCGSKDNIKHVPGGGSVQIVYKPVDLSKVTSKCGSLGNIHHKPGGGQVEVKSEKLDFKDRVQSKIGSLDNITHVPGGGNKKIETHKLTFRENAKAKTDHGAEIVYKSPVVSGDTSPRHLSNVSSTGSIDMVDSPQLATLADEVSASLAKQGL

| selectivity for tau aggregates over Aβ1-42 amyloid | Structure (SMILES) |
| --- | --- |
| threefold | Nc1ccc(-c2ccc3ccccc3n2)cc1 [BF-170, 2-(4-(amino)phenyl)quinoline] |
| threefold | CNc1ccc(-c2ccc3ccccc3n2)cc1 [BF-158, 2-(4-(methylamino)phenyl)quinoline] |
